Results from PubChem BioAssay AID1259407 (Chemical Carcinogenesis Research Information System (CCRIS), 2018).
The source made the active and inactive calls. The rule behind the calls is not given here.

Tested on: CCRIS mutagenicity, Ames/micronucleus/aberration tests
Experiment: CCRIS mutagenicity studies
[1] = Test System: AMES SALMONELLA TYPHIMURIUM, Strain/Indicator: TA98, Metabolic Activation: NONE, Method: PREINCUBATION
[2] = Test System: AMES SALMONELLA TYPHIMURIUM, Strain/Indicator: TA100, Metabolic Activation: NONE, Method: PREINCUBATION
[3] = Test System: AMES SALMONELLA TYPHIMURIUM, Strain/Indicator: TA100, Metabolic Activation: S-9, Method: PREINCUBATION
[4] = Test System: AMES SALMONELLA TYPHIMURIUM, Strain/Indicator: TA98, Metabolic Activation: RAT, LIVER, S-9, Method: STANDARD PLATE
[5] = Test System: AMES SALMONELLA TYPHIMURIUM, Strain/Indicator: TA98, Metabolic Activation: NONE, Method: STANDARD PLATE
[6] = Test System: AMES SALMONELLA TYPHIMURIUM, Strain/Indicator: TA100, Metabolic Activation: NONE, Method: STANDARD PLATE
[7] = Test System: AMES SALMONELLA TYPHIMURIUM, Strain/Indicator: TA1537, Metabolic Activation: NONE, Method: STANDARD PLATE
[8] = Test System: AMES SALMONELLA TYPHIMURIUM, Strain/Indicator: TA1535, Metabolic Activation: NONE, Method: STANDARD PLATE
[9] = Test System: AMES SALMONELLA TYPHIMURIUM, Strain/Indicator: TA1538, Metabolic Activation: NONE, Method: STANDARD PLATE

Measured: mutagenic call

O=S(=O)(O)c1cc(S(=O)(=O)O)c2c(N=Nc3ccc(S(=O)(=O)O)c4ccccc34)c(O)ccc2c1
inactive: End Point: IN VIVO MICRONUCLEUS, Test System: BONE MARROW POLYCHROMATIC ERYTHROCYTES, Species: MOUSE, Strain/Sex: DDY/MALE, Route: IP inactive; negative | [1] inactive; negative | Test System: AMES SALMONELLA TYPHIMURIUM, Strain/Indicator: TA98, Metabolic Activation: S-9, Method: PREINCUBATION inactive; negative | [2] inactive; negative | [3] inactive; negative | Test System: Mouse lymphoma, Strain/Indicator: L5178Y (tk+/tk-), Metabolic Activation: None, Method: Suspension/plate inactive; negative | Test System: Mouse lymphoma, Strain/Indicator: L5178Y (tk+/tk-), Metabolic Activation: Rat, Liver, S-9, Aroclor 1254, Method: Suspension/plate inactive; inconclusive (previous evaluation negative) | Test System: UDS RODENT HEPATOCYTES, Strain/Indicator: THY INCORP, Metabolic Activation: NONE, Method: AUTORADIOGRAPHY inactive; negative

CC1=C(O)C(=O)C(O)CO1 (configuration not stated)
active: [2] active; positive | [3] active; positive

CC(=O)Nc1nc2c3cccnc3ccc2n1C
inactive: Test System: AMES SALMONELLA TYPHIMURIUM, Strain/Indicator: TA98(1,8-DNP6), Metabolic Activation: RAT, LIVER, S-9, Method: STANDARD PLATE inactive; negative
active: Test System: AMES SALMONELLA TYPHIMURIUM, Strain/Indicator: TA98(NR), Metabolic Activation: RAT, LIVER, S-9, Method: STANDARD PLATE active; positive | [4] active; positive | Test System: AMES SALMONELLA TYPHIMURIUM, Strain/Indicator: TA98, Method: STANDARD PLATE active; positive

CN1CCN(c2ccc3nc(Cc4ccc5nc(-c6ccc(N(CCCl)CCCl)cc6)[nH]c5c4)[nH]c3c2)CC1
inactive: [5] inactive; negative | [6] inactive; negative | Test System: AMES SALMONELLA TYPHIMURIUM, Strain/Indicator: TA102, Metabolic Activation: NONE, Method: STANDARD PLATE inactive; negative

CCCC(=O)Nc1snc2ccc(Cl)cc12
inactive: [6] inactive; negative | Test System: AMES SALMONELLA TYPHIMURIUM, Strain/Indicator: TA100, Metabolic Activation: S-9, Method: STANDARD PLATE inactive; negative | [7] inactive; negative | Test System: AMES SALMONELLA TYPHIMURIUM, Strain/Indicator: TA1537, Metabolic Activation: S-9, Method: STANDARD PLATE inactive; negative

CC(=O)Oc1ccc(CCl)cc1
active: [6] active; positive

O=NN(CC(=O)O)CC(=O)O
inactive: [5] inactive; negative | [4] inactive; negative | [6] inactive; negative | Test System: AMES SALMONELLA TYPHIMURIUM, Strain/Indicator: TA100, Metabolic Activation: RAT, LIVER, S-9, Method: STANDARD PLATE inactive; negative | [8] inactive; negative | Test System: AMES SALMONELLA TYPHIMURIUM, Strain/Indicator: TA1535, Metabolic Activation: RAT, LIVER, S-9, Method: STANDARD PLATE inactive; negative | [7] inactive; negative | Test System: AMES SALMONELLA TYPHIMURIUM, Strain/Indicator: TA1537, Metabolic Activation: RAT, LIVER, S-9, Method: STANDARD PLATE inactive; negative | [9] inactive; negative | Test System: AMES SALMONELLA TYPHIMURIUM, Strain/Indicator: TA1538, Metabolic Activation: RAT, LIVER, S-9, Method: STANDARD PLATE inactive; negative
active: [2] active; positive

O=[N+]([O-])c1ccc2ccc3cc4ccccc4c4ccc1c2c34
active: Test System: AMES SALMONELLA TYPHIMURIUM, Strain/Indicator: TA98(1,8-DNP6), Metabolic Activation: NONE active; positive | Test System: AMES SALMONELLA TYPHIMURIUM, Strain/Indicator: TA98(1,8-DNP6), Metabolic Activation: NONE, Method: STANDARD PLATE active; positive | Test System: AMES SALMONELLA TYPHIMURIUM, Strain/Indicator: TA98(1,8-DNP6), Metabolic Activation: RAT, LIVER, S-9, AROCLOR 1254 active; positive | Test System: AMES SALMONELLA TYPHIMURIUM, Strain/Indicator: TA98(NR), Metabolic Activation: NONE active; positive | Test System: AMES SALMONELLA TYPHIMURIUM, Strain/Indicator: TA98(NR), Metabolic Activation: NONE, Method: PREINCUBATION active; positive | Test System: AMES SALMONELLA TYPHIMURIUM, Strain/Indicator: TA98(NR), Metabolic Activation: RAT, LIVER, S-9, AROCLOR 1254 active; positive | Test System: AMES SALMONELLA TYPHIMURIUM, Strain/Indicator: TA98, Metabolic Activation: NONE active; positive | Test System: AMES SALMONELLA TYPHIMURIUM, Strain/Indicator: TA98, Metabolic Activation: NONE', Method: STANDARD PLATE active; positive | [1] active; positive | [5] active; positive | Test System: AMES SALMONELLA TYPHIMURIUM, Strain/Indicator: TA98, Metabolic Activation: NONE, Method: STANDARD PLATE (ANAEROBIC) active; positive | Test System: AMES SALMONELLA TYPHIMURIUM, Strain/Indicator: TA98, Metabolic Activation: RAT, LIVER, HEPATOCYTES, AROCLOR 1254 active; positive | Test System: AMES SALMONELLA TYPHIMURIUM, Strain/Indicator: TA98, Metabolic Activation: RAT, LIVER, S-9, AROCLOR 1254 active; positive | [6] active; positive | Test System: CHINESE HAMSTER OVARY, Strain/Indicator: CHO-K1-BH4 (HGPRT), Metabolic Activation: RAT, LIVER, S-9, 3-METHYLCHOLANTHRENE active; positive | Test System: CHO/HGPRT, Strain/Indicator: CHO-K1-BH4, Metabolic Activation: RAT, LIVER, S-9, 3-METHYLCHOLANTHRENE active; positive | Test System: CHO/HGPRT, Strain/Indicator: CHO-K1-BH4, Metabolic Activation: RAT, LIVER, S-9, AROCLOR 1254 active; positive
inactive: Test System: AMES SALMONELLA TYPHIMURIUM, Strain/Indicator: TA98(NR), Metabolic Activation: NONE, Method: STANDARD PLATE inactive; negative | Test System: CHINESE HAMSTER OVARY, Strain/Indicator: CHO-K1-BH4 (HGPRT), Metabolic Activation: NONE inactive; negative | Test System: CHO/HGPRT, Strain/Indicator: CHO-K1-BH4, Metabolic Activation: NONE inactive; negative | Test System: CHO/HGPRT, Strain/Indicator: CHO-K1-BH4, Metabolic Activation: RAT, LIVER, HEPATOCYTES inactive; negative | Test System: CHO/HGPRT, Strain/Indicator: CHO-K1-BH4, Metabolic Activation: RAT, LIVER, HEPATOCYTES, 3-METHYLCHOLANTHRENE inactive; negative | Test System: CHO/HGPRT, Strain/Indicator: CHO-K1-BH4, Metabolic Activation: RAT, LIVER, HEPATOCYTES, AROCLOR 1254 inactive; negative | Test System: CHO/HGPRT, Strain/Indicator: CHO-K1-BH4, Metabolic Activation: RAT, LIVER, S-9 inactive; negative

CN1CCC(=C2c3ccccc3C=Cc3ccccc32)CC1
inactive: [5] inactive; negative | Test System: AMES SALMONELLA TYPHIMURIUM, Strain/Indicator: TA98, Metabolic Activation: RAT, LIVER, S-9, AROCLOR 1254, Method: STANDARD PLATE inactive; negative | [6] inactive; negative | Test System: AMES SALMONELLA TYPHIMURIUM, Strain/Indicator: TA100, Metabolic Activation: RAT, LIVER, S-9, AROCLOR 1254, Method: STANDARD PLATE inactive; negative | [8] inactive; negative | Test System: AMES SALMONELLA TYPHIMURIUM, Strain/Indicator: TA1535, Metabolic Activation: RAT, LIVER, S-9, AROCLOR 1254, Method: STANDARD PLATE inactive; negative | [7] inactive; negative | Test System: AMES SALMONELLA TYPHIMURIUM, Strain/Indicator: TA1537, Metabolic Activation: RAT, LIVER, S-9, AROCLOR 1254, Method: STANDARD PLATE inactive; negative | [9] inactive; negative | Test System: AMES SALMONELLA TYPHIMURIUM, Strain/Indicator: TA1538, Metabolic Activation: RAT, LIVER, S-9, AROCLOR 1254, Method: STANDARD PLATE inactive; negative
